Where two headings read alike, the source gives them in different places.
Assays:
Assay type in all cases: cell-based
[1] = system: human peripheral blood polymorphonuclear leukocytes; test: Chemiluminescence assay (oxidative burst response), stimulated with opsonized zymosan; details: for Chemiluminescence, Millivolts: DMSO control 664
Procedure: (§1) Polymorphonuclear leukocytes (PMNS) were isolated from the peripheral blood of healthy individuals in citrated glass. The cells were separated by dextran density gradient and lymphoprep separation. The purity of PMNs was greater than 98% and the cell viability as determined by trypan blue dye exclusion was greater than 98%.
Chemiluminescence assay was used as a measure of oxygen radical generation by activated PMNs. The method was performed as described in Kharazmi, A., Høiby, N., Doring, G., and Valerius, N. H. Pseudomonas aeruginosa exoproteases inhibit human neutrophil chemiluminescence. Infect. Immun. 44, 587, 1984. PMNs were pre-incubated with different concentrations of the extracted galactolipid and then stimulated with opsonized zymosan. The oxidative burst response of the activated cells was measured by a luminometer (1250-LKB Wallace).

[2] = system: polymorphonuclear leukocytes; test: Cell viability by trypan blue dye exclusion; details: for Percent viability: DMSO control 100
Procedure: as §1
Table 6. […] Cell viability was determined by a trypan blue dye exclusion method. The cells were incubated with trypan blue. The dead cells will take up dye and appear blue under the microscope. The results are show as percent viable cells.

[3] = system: human peripheral blood polymorphonuclear leukocytes; test: Chemotaxis assay, modified Boyden chamber, towards zymosan activated serum (ZAS)
Procedure: as §1
Chemotaxis assay was performed using a modified Boyden chamber technique as described in Jensen, P. and Kharazmi, A., Computer-assisted image analysis assay of human neutrophil chemotaxis in vitro. J. Immunol. Methods, 144, 43–48. 1991. The purified PMNs were pre-incubated with different dilutions of the extracted galactolipid for 30 min at 37° C. Following preincubation, the chemotaxis of the cells towards the chemotactic factor zymosan activated serum (ZAS), which contains the biologically active chemoattractant C5a, were tested. The migrated cells were counted by a computer-assisted image analysis system.

Q: `CC/C=C\C/C=C\C/C=C\CCCCCCCC(=O)OCC(CO[C@@H]1O[C@H](CO)[C@H](O)[C@H](O)[C@H]1O)OC(=O)CCCCCCC/C=C\C/C=C\C/C=C\CC` (stereo partly drawn) [GOPO, 3-β-D-galactopyranosyloxy-2-(octadeca-9Z,12Z,15Z-trienoyloxy)propanyl octadeca-9Z,12Z,15Z-trienoate] was tested. Which “Chemiluminescence, Millivolts” value ([1]; GOPO 50 μg/ml) did it give?
A: 520 Millivolts

Q: What about the “Chemiluminescence, Millivolts” value ([1]; GOPO 100 μg/ml) of the same compound?
A: 339 Millivolts

Q: What about the “Chemiluminescence of human peripheral blood leukocytes (result in words)” value ([1]; at fairly low concentrations) of the same compound?
A: inhibited

Q: What about the Percent viability ([2]; GOPO 50 μg/ml) of the same compound?
A: 100%

Q: And the Percent viability ([2]; GOPO 100 μg/ml)?
A: 99%

Q: What about the “Toxicity to the cells (result in words)” value ([2]; at the tested concentrations) of the same compound?
A: does not appear to be toxic

Q: And the Cells migrated ([3]; GOPO 0.1 μg/ml, new batch (Table 4), DMSO control 42)?
A: 39

Q: What about the Cells migrated ([3]; GOPO 1 μg/ml, new batch (Table 4), DMSO control 42) of the same compound?
A: 15

Q: And the Cells migrated ([3]; GOPO 10 μg/ml, new batch (Table 4), DMSO control 42)?
A: 16

Q: What about the Cells migrated ([3]; GOPO 50 μg/ml, first batch (Table 3), DMSO control 59) of the same compound?
A: 5

Q: What about the Cells migrated ([3]; GOPO 100 μg/ml, first batch (Table 3), DMSO control 59) of the same compound?
A: 8

Q: What about the Cells migrated ([3]; GOPO 100 μg/ml, new batch (Table 4), DMSO control 42) of the same compound?
A: 12

Q: What about the inhibition at 0.1 µg/mL ([3]; Homo sapiens, Leukocyte, GOPO 0.1 μg/ml, new batch (Table 4), read-out: Percent inhibition) of the same compound?
A: 7%

Q: And the inhibition at 1 µg/mL ([3]; Homo sapiens, Leukocyte, GOPO 1 μg/ml, new batch (Table 4), read-out: Percent inhibition)?
A: 64%

Q: What about the inhibition at 10 µg/mL ([3]; Homo sapiens, Leukocyte, GOPO 10 μg/ml, new batch (Table 4), read-out: Percent inhibition) of the same compound?
A: 62%

Q: What about the inhibition at 50 µg/mL ([3]; Homo sapiens, Leukocyte, GOPO 50 μg/ml, first batch (Table 3), read-out: Percent inhibition) of the same compound?
A: 92%

Q: And the inhibition at 100 µg/mL ([3]; Homo sapiens, Leukocyte, GOPO 100 μg/ml, first batch (Table 3), read-out: Percent inhibition)?
A: 86%

Q: What about the inhibition at 100 µg/mL ([3]; Homo sapiens, Leukocyte, GOPO 100 μg/ml, new batch (Table 4), read-out: Percent inhibition) of the same compound?
A: 71%

Q: And the “Migration of human peripheral blood leukocytes towards zymosan-activated serum (result in words)” value ([3]; at fairly low concentrations)?
A: inhibited

— US7084122B2, “Use of glycosides of mono- and diacyglycerol as anti-inflammatory agents” (priority 2001, dated 2006)
